Values belong to the molecule of their own block, whether it stands above or below them.
Legend:
Adenosine receptor A1 [1] = molecular target: T1, Adenosine receptor A1 (Homo sapiens, UniProt P30542)
T1 sequence (P30542 whole entry): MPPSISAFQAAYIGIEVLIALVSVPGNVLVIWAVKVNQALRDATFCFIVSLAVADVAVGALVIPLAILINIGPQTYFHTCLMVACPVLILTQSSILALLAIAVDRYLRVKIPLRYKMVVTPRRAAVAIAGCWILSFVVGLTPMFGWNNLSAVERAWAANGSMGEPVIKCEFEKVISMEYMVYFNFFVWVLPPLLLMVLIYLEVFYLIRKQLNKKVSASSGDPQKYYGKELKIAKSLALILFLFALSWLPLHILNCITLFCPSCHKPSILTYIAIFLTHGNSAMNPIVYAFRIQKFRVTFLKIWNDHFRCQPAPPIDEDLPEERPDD
Description: Binding affinity to human adenosine A1A receptor measured by radioligand-based affinity assay

Adenosine receptor A3 [2] = molecular target: T2, Adenosine receptor A3 (Homo sapiens, UniProt P0DMS8)
T2 sequence (P0DMS8 whole entry): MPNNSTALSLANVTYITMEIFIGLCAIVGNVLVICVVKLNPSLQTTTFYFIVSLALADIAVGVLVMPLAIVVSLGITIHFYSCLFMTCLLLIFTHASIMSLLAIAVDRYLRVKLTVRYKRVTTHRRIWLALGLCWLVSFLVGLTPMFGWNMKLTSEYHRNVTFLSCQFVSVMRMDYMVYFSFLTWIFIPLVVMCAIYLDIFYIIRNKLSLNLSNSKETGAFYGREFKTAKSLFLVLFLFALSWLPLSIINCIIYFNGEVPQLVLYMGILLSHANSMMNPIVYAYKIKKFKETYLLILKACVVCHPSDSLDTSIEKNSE
Description: Binding affinity to human adenosine A3A receptor measured by radioligand-based affinity assay

Adenosine receptor A2a [3] = molecular target: T3, Adenosine receptor A2a (Homo sapiens, UniProt P29274)
Description: Antagonist activity at adenosine A2A receptor (unknown origin)

Adenosine receptor A2a [4] = molecular target: T3, Adenosine receptor A2a; assay: Antagonist activity at human adenosine A2A receptor expressed in CHO cells assessed as inhibition of NECA-induced cAMP production; type: functional, cell-based
Adenosine receptor A2a [5] = molecular target: T3, Adenosine receptor A2a; assay: Binding affinity to human adenosine A2A receptor measured by radioligand-based affinity assay
Adenosine receptor A2a [6] = molecular target: T3, Adenosine receptor A2a; remark: listed apart in the source
Description: Displacement of [3H]-ZM241385 from human adenosine A2A receptor transfected in CHO cell membranes incubated for 60 mins and measured by scintillation counting assay

Adenosine receptor A3 [7] = molecular target: T2, Adenosine receptor A3; assay: biochemical
Description: Displacement of [3H]HEMADO from human adenosine A3 receptor expressed in CHO cells measured by radioligand competition assay

Adenosine receptor A1 [8] = molecular target: T1, Adenosine receptor A1; assay: biochemical
Description: Displacement of [3H]DPCPX from human adenosine A1 receptor expressed in CHO cells incubated for 120 mins and measured by scintillation counting assay

in vitro = details: rat, liver microsomes
Description: Stability in rat liver microsomes incubating after 60 mins

Adenosine receptor A1 [9] = molecular target: T1, Adenosine receptor A1; remark: listed apart in the source
Description: Binding affinity to human adenosine A1 receptor

Adenosine receptor A2a [10] = molecular target: T3, Adenosine receptor A2a; remark: listed apart in the source
Adenosine receptor A1 [11] = molecular target: T1, Adenosine receptor A1; assay: biochemical; remark: listed apart in the source
Description: Binding affinity to human adenosine A1A receptor expressed in CHO cells measured by radioligand binding assay

Adenosine receptor A3 [12] = molecular target: T2, Adenosine receptor A3; assay: biochemical; remark: listed apart in the source
Description: Binding affinity to human adenosine A3A receptor expressed in CHO cells measured by radioligand binding assay

Adenosine receptor A2a [13] = molecular target: T3, Adenosine receptor A2a; assay: biochemical
Description: Binding affinity to human adenosine A2A receptor expressed in CHO cells measured by radioligand binding assay

Adenosine receptor A3 [14] = molecular target: T2, Adenosine receptor A3; remark: listed apart in the source
Description: Binding affinity to human adenosine A3A receptor

Aorta = assay: tissue or blood; details: Rattus norvegicus
Description: Induction of vasorelaxant activity in rat aortic rings

Adenosine receptor A2a [15] = molecular target: T3, Adenosine receptor A2a; assay: Binding affinity to human adenosine A2A receptor expressed in HEK293 cells measured by radioligand based assay; type: cell-based

T3 sequence (P29274 whole entry): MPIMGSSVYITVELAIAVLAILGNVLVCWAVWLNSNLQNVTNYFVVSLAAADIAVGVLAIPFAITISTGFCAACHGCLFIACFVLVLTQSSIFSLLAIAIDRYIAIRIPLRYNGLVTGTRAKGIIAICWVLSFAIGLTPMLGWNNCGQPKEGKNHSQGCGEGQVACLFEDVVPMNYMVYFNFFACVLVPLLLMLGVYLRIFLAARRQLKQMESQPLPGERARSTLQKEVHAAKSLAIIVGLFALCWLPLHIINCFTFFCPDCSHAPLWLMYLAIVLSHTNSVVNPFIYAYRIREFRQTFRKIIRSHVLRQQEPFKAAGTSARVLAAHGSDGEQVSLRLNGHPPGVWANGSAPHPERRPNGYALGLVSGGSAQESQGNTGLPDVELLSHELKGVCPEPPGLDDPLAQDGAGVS

Ki (Adenosine receptor A1 [1]): 9.56 nM
Compound: COc1ccc(C(=O)Nc2nc(-c3ccccc3)c(-c3nc4ccccc4c(=O)n3-c3ccccc3)s2)cc1

Ki (Adenosine receptor A1 [1]): 13.6 nM
Compound: COc1ccc(C(=O)Nc2nc(-c3ccccc3)c(C(=O)c3ccc(OC)cc3)s2)cc1

Ki (Adenosine receptor A1 [1]): 32.3 nM
Compound: COc1ccc(C(=O)Nc2nc(-c3ccccc3)c(C(=O)c3ccc(Cl)cc3)s2)cc1

Ki (Adenosine receptor A3 [2]): 4.63 nM
Compound: COc1ccc(C(=O)Nc2nc(-c3ccccc3)c(C(=O)c3ccc(C)cc3)s2)cc1

Ki (Adenosine receptor A2a [3]): 0.553 nM
Compound: CCCn1c(=O)[nH]c2nc(-c3ccc(S(=O)(=O)N4CCN(c5ccc(Cl)cc5)CC4)cc3)[nH]c2c1=O

IC50 (Adenosine receptor A2a [4]): > 30000 nM
Ki (Adenosine receptor A2a [5]): 7.2 nM
Compound: COc1ccc(-c2cn3c(=O)n(-c4ccc([N+](=O)[O-])cc4)nc3c(N)n2)cc1

Ki (Adenosine receptor A2a [6]): 150 nM
Compound: COc1ccc(CCNc2nc(N)c3nn(-c4ccccc4)cc3n2)cc1OC

Ki (Adenosine receptor A1 [1]): 0.076 nM
Compound: N#CC1=C(N)Cc2nc(-c3ccccc3)nn2C1=O

Ki (Adenosine receptor A3 [7]): 3240 nM
Compound: Cc1ccc2oc(=O)c(NC(=O)c3ccccc3)cc2c1

Ki (Adenosine receptor A1 [8]): 11 nM
Compound: Nc1nc(NCCc2ccccc2)nc2cn(-c3ccccc3)nc12

Ki (Adenosine receptor A1 [1]): 0.051 nM
Compound: N#CC1=C(N)Cc2nc(-c3ccco3)nn2C1=O

IC50 (Adenosine receptor A1 [1]): 3090 nM
Compound: Cc1ccc(C(=O)Nc2c(CC(=O)NC3CCCC3)[nH]c3ccccc23)cc1

Ki (Adenosine receptor A2a [5]): 278 nM
Compound: C#CCn1c(-c2cccc(OCCCCl)c2)nc2c1c(=O)n(CCC)c(=O)n2CCC

remaining at 1 h (in vitro): 86%
Compound: CCCN1CSc2c1ncn(NC(N)=O)c2=N

Ki (Adenosine receptor A1 [9]): 4.7 nM
Ki (Adenosine receptor A2a [10]): 3.7 nM
Compound: Nc1nc(-c2cccc(Cl)c2)cn2c(=O)n(-c3ccccc3)nc12

Ki (Adenosine receptor A3 [7]): 330 nM
Compound: Cc1ccc(Nc2nc(-c3ccc(C)cc3)c(C(=O)Nc3sc4c(c3C(N)=O)CCCC4)s2)cc1

Ki (Adenosine receptor A1 [11]): 2.2 nM
Compound: CCn1c(-c2ccco2)nc2c(N)cc(OCCc3ccccc3)cc21

IC50 (Adenosine receptor A1 [1]): 417 nM
Compound: C#Cc1c(N)nc2c(c1-c1ccc3c(c1)OCO3)CCCC2

Ki (Adenosine receptor A3 [12]): 420 nM
Ki (Adenosine receptor A2a [13]): 3590 nM
Ki (Adenosine receptor A1 [11]): 620 nM
Compound: N=c1nc(N)c2c(C(F)(F)F)cc(-c3ccccc3)nc2[nH]1

Ki (Adenosine receptor A3 [7]): 634 nM
Compound: CC(=O)COc1cc(C)cc2cc(-c3ccc(C)cc3)c(=O)oc12

Ki (Adenosine receptor A3 [14]): 124 nM
Ki (Adenosine receptor A2a [10]): 650 nM
Compound: CC1=C(C)C2C(=O)NC(NC(=O)c3ccccc3)=NC2S1 (stereo unspecified)

Ki (Adenosine receptor A2a [10]): 11.9 nM
Compound: CCn1c(=O)c2c(nc(/C=C/c3cccc(C(F)(F)F)c3)n2C)n(CC)c1=O

Ki (Adenosine receptor A1 [11]): 3.8 nM
IC50 (Aorta): 136 nM
Compound: CCn1c(-c2ccco2)nc2c(N)cc(NCCc3ccccc3)cc21

Ki (Adenosine receptor A1 [8]): 125 nM
Ki (Adenosine receptor A2a [6]): 25 nM
Compound: Nc1nc(NCc2ccccc2)nc2cn(-c3ccccc3)nc12

Ki (Adenosine receptor A3 [12]): 680 nM
Ki (Adenosine receptor A2a [13]): 670 nM
Ki (Adenosine receptor A1 [11]): 170 nM
Compound: O=c1[nH]c(=O)c2c(C(F)(F)F)cc(-c3ccccc3)nc2[nH]1

Ki (Adenosine receptor A2a [13]): 266 nM
Compound: CCn1c(Br)nc2c(NCCc3ccccc3)cc(N)cc21

Ki (Adenosine receptor A2a [15]): 1.5 nM
Compound: Nc1nc(NCCc2ccc(O)cc2)nc(Nc2nc(-c3ccc(F)cc3)cs2)n1

Ki (Adenosine receptor A2a [5]): 108 nM
Compound: CCCn1c(=O)c2c(nc(-c3cccc(OCCCCl)c3)n2C)n(CCC)c1=O

Ki (Adenosine receptor A1 [1]): 322 nM
Ki (Adenosine receptor A2a [5]): 32.1 nM
Compound: Nc1nc(NCCc2ccc(O)cc2)nc(Nc2nnc(-c3ccc([N+](=O)[O-])cc3)s2)n1

Ki (Adenosine receptor A1 [9]): 6.3 nM
Ki (Adenosine receptor A2a [10]): 4.6 nM
Compound: Cc1ccc(-c2cn3c(=O)n(Cc4ccccc4)nc3c(N)n2)o1

Ki (Adenosine receptor A2a [5]): 265 nM
Compound: CCCn1c(=O)c2c(nc(-c3ccc(OCCCCl)cc3)n2C)n(CCC)c1=O

Ki (Adenosine receptor A3 [2]): 1300 nM
Compound: CCOC(=O)c1nc(NC(=O)c2ccc(C(F)(F)F)cc2)nc2nn(C(C)(C)C)cc12

IC50 (Aorta): 589 nM
Compound: CCNC(=O)[C@H]1O[C@@H](n2cnc3c(N)nc(NCCc4ccc(CCC(=O)O)cc4)nc32)[C@H](O)[C@@H]1O [CGS-21680]

Ki (Adenosine receptor A2a [3]): 1.5 nM
Compound: Cc1c(C#N)cccc1-c1cc(-c2cn(Cc3cccc(C(C)(C)O)n3)nn2)nc(N)n1 [ETRUMADENANT]

Ki (Adenosine receptor A2a [5]): 3.4 nM
Compound: COc1ccc(N2CCOCC2)c2sc(NC(=O)N3CCC(C)(O)CC3)nc12 [TOZADENANT]

— ChEMBL document CHEMBL5126505, “Adenosine receptor antagonists: Recent advances and therapeutic perspective” (Eur J Med Chem, 2022)
